# Measured values: US20050112573A1, “Method of detecting toxic substance” (priority 2001, published 2005)
# Test system: yeast genes (level of expressed mRNA)
# Experiment: DNA chip analysis of expressed mRNA of yeast genes after 2 h culture with a toxic chemical substance
# Type: cell-based, Saccharomyces cerevisiae S288C
# Conditions: for The level of expressed mRNA in the presence of chemical substance/ (ratio to absence): transport facilitation protein gene; for The level of expressed mRNA in the presence of chemical substance/: ratio to no chemical; for The level of expressed mRNA in the presence of chemical substance/ (ratio to absence of chemical substance): stress protein genes, DNA chip
# Summary of the method: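 Values are treated-to-control fluorescence ratios from a whole-yeast-genome DNA chip (65° C, over 12 h hybridization) using Cy3/Cy5-labelled cDNA from mRNA. Log-phase S288C cells in YPD at 25° C were exposed 2 h to a toxicant at sublethal, growth-inhibiting concentration.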
substance,measurement,setting,value
sodium dodecylbenzosulfonate [(17)],level of expressed mRNA in the presence of chemical substance/in its absence,gene YNL037C,0.9
same,level of expressed mRNA in the presence of chemical substance/in its absence,gene YNL045W,1.1
same,The level of expressed mRNA in the presence of chemical substance/absence: YNL058C,gene YNL058C,0.8
same,The level of expressed mRNA in the presence of chemical substance/absence: YNL063W,gene YNL063W,0.9
same,level of expressed mRNA in the presence of chemical substance/in its absence,gene YNL104C,0.9
same,level of expressed mRNA in the presence of chemical substance/in its absence,gene YNL106C,1.1
same,level of expressed mRNA in the presence of chemical substance/in its absence,gene YNL130C,0.7
same,level of expressed mRNA in the presence of chemical substance/in its absence,gene YNL169C,1.1
same,The level of expressed mRNA in the presence of chemical substance/absence: YNL176C,gene YNL176C,0.6
same,The level of expressed mRNA in the presence of chemical substance/absence: YNL181W,gene YNL181W,0.8
same,The level of expressed mRNA in the presence of chemical substance/absence: YNL191W,gene YNL191W,0.5
same,The level of expressed mRNA in the presence of chemical substance/absence: YNL194C,gene YNL194C,0.8
same,The level of expressed mRNA in the presence of chemical substance/absence: YNL200C,gene YNL200C,1.2
same,The level of expressed mRNA in the presence of chemical substance/absence: YNL212W,gene YNL212W,0.9
same,level of expressed mRNA in the presence of chemical substance/in its absence,gene YNL231C,3.1
same,The level of expressed mRNA in the presence of chemical substance/absence: YNL253W,gene YNL253W,1.1
same,The level of expressed mRNA in the presence of chemical substance/absence: YNL265C,gene YNL265C,0.9
same,The level of expressed mRNA in the presence of chemical substance/absence: YNL276C,gene YNL276C,1.1
same,level of expressed mRNA in the presence of chemical substance/in its absence,gene YNL322C,0.9
same,level of expressed mRNA in the presence of chemical substance/in its absence,gene YNR002C,1.5
same,level of expressed mRNA in the presence of chemical substance/in its absence,gene YNR019W,2.4
same,level of expressed mRNA in the presence of chemical substance/in its absence,gene YNR033W,0.9
same,The level of expressed mRNA in the presence of chemical substance/absence: YNR051C,gene YNR051C,0.7
same,level of expressed mRNA in the presence of chemical substance/in its absence,gene YNR059W,2.6
same,The level of expressed mRNA in the presence of chemical substance/absence: YOL026C,gene YOL026C,2.1
same,The level of expressed mRNA in the presence of chemical substance/absence: YOL030W,gene YOL030W,0.9
same,level of expressed mRNA in the presence of chemical substance/in its absence,gene YOL058W,1.2
same,level of expressed mRNA in the presence of chemical substance/in its absence,gene YOL126C,1.6
same,level of expressed mRNA in the presence of chemical substance/in its absence,gene YOL143C,1.8
same,level of expressed mRNA in the presence of chemical substance/in its absence,gene YOL153C,1.1
same,level of expressed mRNA in the presence of chemical substance/in its absence,gene YOL157C,1.4
same,The level of expressed mRNA in the presence of chemical substance/absence: YOR022C,gene YOR022C,1.1
same,The level of expressed mRNA in the presence of chemical substance/absence: YOR087W,gene YOR087W,0.8
same,The level of expressed mRNA in the presence of chemical substance/absence: YOR088W,gene YOR088W,0.7
same,level of expressed mRNA in the presence of chemical substance/in its absence,gene YOR099W,1.2
same,level of expressed mRNA in the presence of chemical substance/in its absence,gene YOR130C,1.5
same,level of expressed mRNA in the presence of chemical substance/in its absence,gene YOR136W,0.8
same,The level of expressed mRNA in the presence of chemical substance/absence: YOR138C,gene YOR138C,1.1
same,The level of expressed mRNA in the presence of chemical substance/absence: YOR155C,gene YOR155C,0.8
same,The level of expressed mRNA in the presence of chemical substance/absence: YOR253W,gene YOR253W,0.9
same,The level of expressed mRNA in the presence of chemical substance/absence: YOR267C,gene YOR267C,1.3
same,The level of expressed mRNA in the presence of chemical substance/absence: YOR325W,gene YOR325W,0.8
same,level of expressed mRNA in the presence of chemical substance/in its absence,gene YOR336W,1.0
same,level of expressed mRNA in the presence of chemical substance/in its absence,gene YOR344C,1.3
same,level of expressed mRNA in the presence of chemical substance/in its absence,gene YOR347C,1.7
same,The level of expressed mRNA in the presence of chemical substance/absence: YPL005W,gene YPL005W,1.2
same,level of expressed mRNA in the presence of chemical substance/in its absence,gene YPL017C,1.3
same,"The level of expressed mRNA in the presence of chemical substance / the level in the absence of chemical substance, yeast gene YPL107W","gene YPL107W, DNA chip fluorescence ratio to control without chemical, 2 hours culture with chemical, growth-inhibiting non-lethal concentration",1.0
same,"The level of expressed mRNA in the presence of chemical substance / the level in the absence of chemical substance, yeast gene YPL138C","gene YPL138C, DNA chip fluorescence ratio to control without chemical, 2 hours culture with chemical, growth-inhibiting non-lethal concentration",0.8
same,The level of expressed mRNA in the presence of chemical substance/absence: YPL150W,gene YPL150W,1.4
same,The level of expressed mRNA in the presence of chemical substance/absence: YPL151C,gene YPL151C,0.8
same,The level of expressed mRNA in the presence of chemical substance/absence: YPL152W,gene YPL152W,1.2
same,The level of expressed mRNA in the presence of chemical substance/absence: YPL168W,gene YPL168W,1.1
same,The level of expressed mRNA in the presence of chemical substance/absence: YPL180W,gene YPL180W,1.0
same,The level of expressed mRNA in the presence of chemical substance/absence: YPL188W,gene YPL188W,0.7
same,The level of expressed mRNA in the presence of chemical substance/absence: YPL221W,gene YPL221W,1.5
same,The level of expressed mRNA in the presence of chemical substance/absence: YPL225W,gene YPL225W,1.0
same,The level of expressed mRNA in the presence of chemical substance/absence: YPL249C,gene YPL249C,0.8
same,The level of expressed mRNA in the presence of chemical substance/absence: YPL260W,gene YPL260W,0.8
same,level of expressed mRNA in the presence of chemical substance/in its absence,gene YPL265W,0.5
same,level of expressed mRNA in the presence of chemical substance/in its absence,gene YPR006C,1.8
same,level of expressed mRNA in the presence of chemical substance/in its absence,gene YPR026W,0.9
same,The level of expressed mRNA in the presence of chemical substance/absence: YPR049C,gene YPR049C,1.0
same,The level of expressed mRNA in the presence of chemical substance/absence: YPR061C,gene YPR061C,1.1
same,The level of expressed mRNA in the presence of chemical substance/absence: YPR093C,gene YPR093C,1.4
same,The level of expressed mRNA in the presence of chemical substance/absence: YPR146C,gene YPR146C,1.0
same,The level of expressed mRNA in the presence of chemical substance/absence: YPR148C,gene YPR148C,0.9
same,The level of expressed mRNA in the presence of chemical substance/absence: YPR150W,gene YPR150W,0.9
same,The level of expressed mRNA in the presence of chemical substance/absence: YPR158W,gene YPR158W,0.9
same,The level of expressed mRNA in the presence of chemical substance/absence: YPR169W,gene YPR169W,1.1
same,The level of expressed mRNA in the presence of chemical substance/absence: YPR172W,gene YPR172W,1.1
same,The level of expressed mRNA in the presence of chemical substance/absence: YPR174C,gene YPR174C,1.4
same,The level of expressed mRNA in the presence of chemical substance/in the absence of chemical substance,yeast gene YAL023C,1.0
same,The level of expressed mRNA in the presence of chemical substance/in the absence of chemical substance,yeast gene YAL060W,1.1
same,The level of expressed mRNA in the presence of chemical substance/in the absence of chemical substance,yeast gene YAL062W,1.0
same,The level of expressed mRNA in the presence of chemical substance/ (ratio to absence),yeast gene YAL067C,1.0
same,The level of expressed mRNA in the presence of chemical substance/The level of expressed mRNA in the absence of chemical substance,yeast gene YAR010C,1.5
same,The level of expressed mRNA in the presence of chemical substance/The level of expressed mRNA in the absence of chemical substance,yeast gene YBL005W-A,1.3
same,The level of expressed mRNA in the presence of chemical substance/ (ratio to absence),yeast gene YBL030C,1.0
same,"The level of expressed mRNA in the presence of chemical substance/ (ratio to absence), gene YBL038W","yeast gene YBL038W, mitochondria-located protein genes, 2 h culture with chemical",1.2
same,The level of expressed mRNA in the presence of chemical substance/The level of expressed mRNA in the absence of chemical substance,yeast gene YBL041W,1.3
same,The level of expressed mRNA in the presence of chemical substance/The level of expressed mRNA in the absence of chemical substance,yeast gene YBL043W,2.3
same,The level of expressed mRNA in the presence of chemical substance/,yeast gene YBL065W,1.1
same,The level of expressed mRNA in the presence of chemical substance/The level of expressed mRNA in the absence of chemical substance,yeast gene YBL078C,1.8
same,The level of expressed mRNA in the presence of chemical substance/ (ratio to absence of chemical substance),yeast gene YBL093C,1.4
same,The level of expressed mRNA in the presence of chemical substance/ (ratio to absence),yeast gene YBL099W,0.7
same,The level of expressed mRNA in the presence of chemical substance/in the absence of chemical substance,yeast gene YBR006W,1.2
same,"The level of expressed mRNA in the presence of chemical substance/ (in its absence), gene YBR036C","yeast gene YBR036C, ratio of DNA chip fluorescence intensity to that without chemical substance",2.1
same,The level of expressed mRNA in the presence of chemical substance/ (ratio to absence of chemical substance),yeast gene YBR044C,0.9
same,The level of expressed mRNA in the presence of chemical substance/,yeast gene YBR047W,1.3
same,The level of expressed mRNA in the presence of chemical substance/ (ratio to absence),yeast gene YBR052C,1.8
same,The level of expressed mRNA in the presence of chemical substance/in the absence of chemical substance,yeast gene YBR056W,2.4
same,The level of expressed mRNA in the presence of chemical substance/ (ratio to absence),yeast gene YBR068C,1.1
same,The level of expressed mRNA in the presence of chemical substance/,yeast gene YBR101C,0.9
